Data: patent US9314026B2, “Heterocyclylpyri(mi)dinylpyrazole” (Bayer Intellectual Property GmbH, priority 2011, dated 2016)
Like-named read-outs stand apart in the source and are kept apart here.

How the values were obtained:
[1] = determination of the log P values by HPLC on a reverse phase column (C18), EEC-Directive 79/831 Annex V.A8; format: physicochemical
Description: Method A Note on the determination of the log P values and mass detection: The stated log P values were determined in accordance with EEC-Directive 79/831 Annex V.A8 by HPLC (High Performance Liquid Chromatography) on a reverse phase column (C18). […] The mass detection was effected with an […] system. Method B Note on the determination of the log P values and mass detection: The stated log P values were determined in accordance with EEC-Directive 79/831 Annex V.A8 by HPLC (High Performance Liquid Chromatography) on a reverse phase column (C18). […] The mass detection was effected with the Micronass ZQ2000 mass detector from Waters. Method C Note on the determination of the log P values and mass detection: The stated log P values were determined in accordance with EEC-Directive 79/831 Annex V.A8 by UPLC (Ultra Performance Liquid Chromatography) on a reverse phase column (C18). […] The mass detection was effected with the LCT Premier or SQD mass detector from Waters.

[2] = tested on: Sphaerotheca fuliginea; assay: Sphaerotheca test (cucumber)/preventive; format: in vivo; settings: Podosphaera fuliginea, 168 h, 500 ppm of active ingredient, preventive, evaluated 7 days after inoculation, 0% = untreated control, 100% = no disease, read-out: efficacy
Description: (§1) Sphaerotheca Test (Cucumber)/Preventive Solvent: 49 parts by weight of N,N-Dimethylformamide Emulsifier: 1 part by weight of Alkylarylpolyglycolether To produce a suitable preparation of active compound, 1 part by weight of active compound is mixed with the stated amounts of solvent and emulsifier, and the concentrate is diluted with water to the desired concentration. To test for preventive activity, young plants are sprayed with the preparation of active compound at the stated rate of application. One day after this treatment, the plants are inoculated with an aqueous spore suspension of Sphaerotheca fuliginea.

[3] = tested on: Alternaria solani; assay: Alternaria test (tomato)/preventive; format: in vivo; settings: 168 h, 500 ppm of active ingredient, preventive, evaluated 7 days after inoculation, read-out: efficacy
Description: as §1, with “Alternaria” for “Sphaerotheca”, “(Tomato)/Preventive” for “(Cucumber)/Preventive”, “Alternaria solani. […] Then the plants are placed in an incubation cabinet at approximately 20° C. and a relative atmospheric humidity of 96%.” for “Sphaerotheca fuliginea.”

[4] = tested on: Leptosphaeria nodorum; assay: Leptosphaeria test (wheat)/preventive; format: in vivo; settings: Parastagonospora nodorum, 500 ppm of active ingredient, preventive, evaluated 7-9 days after inoculation, read-out: efficacy
Description: (§2) Leptosphaeria Test (Wheat)/Preventive Solvent: 49 parts by weight of N,N-Dimethylformamide Emulsifier: 1 part by weight of Alkylarylpolyglycolether To produce a suitable preparation of active compound, 1 part by weight of active compound is mixed with the stated amounts of solvent and emulsifier, and the concentrate is diluted with water to the desired concentration. To test for preventive activity, young plants are sprayed with a preparation of active compound at the stated rate of application. One day after this treatment, the plants are inoculated with an aqueous spore suspension of Leptosphaeria nodorum.

[5] = tested on: Pyrenophora teres; assay: Pyrenophora test (barley)/preventive; format: in vivo; settings: 500 ppm of active ingredient, preventive, evaluated 7-9 days after inoculation, read-out: efficacy
Description: as §1, with “Pyrenophora” for “Sphaerotheca”, “(Barley)/Preventive” for “(Cucumber)/Preventive”, “Pyrenophora teres.” for “Sphaerotheca fuliginea.”

[6] = tested on: Puccinia recondita; assay: Puccinia test (wheat)/preventive; format: in vivo; settings: 500 ppm of active ingredient, preventive, evaluated 7-9 days after inoculation, read-out: efficacy
Description: as §2, with “Puccinia Test (Wheat)/Preventive” for “Leptosphaeria Test (Wheat)/Preventive”, “sprayed with the preparation of” for “sprayed with a preparation of”, “suspension of Puccinia recondita.” for “suspension of Leptosphaeria nodorum.”

[7] = tested on: Pyricularia oryzae; assay: whole plant or invertebrate; format: in vivo; settings: 168 h, read-out: efficacy
[8] = tested on: Phytophthora infestans; assay: whole plant or invertebrate; format: in vivo; settings: 72 h, read-out: efficacy
[9] = tested on: Venturia inaequalis; assay: Venturia test (apples)/preventive; format: in vivo; settings: 100 ppm of active ingredient, preventive, evaluated 10 days after inoculation
Description: (§3) Venturia Test (Apples)/Preventive Solvent: 24.5 parts by weight of acetone • 24.5 parts by weight of dimethylacetamide Emulsifier: 1 part by weight of alkylaryl polyglycol ether To produce a suitable preparation of active compound, 1 part by weight of active compound is mixed with the stated amounts of solvent and emulsifier, and the concentrate is diluted with water to the desired concentration. To test for preventive activity, young plants are sprayed with the preparation of active compound at the stated rate of application.

[10] = tested on: Botrytis cinerea; assay: Botrytis test (beans)/preventive; format: in vivo; settings: 48 h, 100 ppm of active ingredient, preventive, size of lesions evaluated 2 days after inoculation, read-out: efficacy
Description: as §3, with “Botrytis” for “Venturia”, “(Beans)/Preventive” for “(Apples)/Preventive”, “compound. After” for “compound at”, “spray coating has dried on, 2 small pieces” for “stated rate”, “agar covered with growth of Botrytis cinerea are placed on each leaf.” for “application.”

[11] = tested on: Septoria tritici; assay: Septoria tritici-test (wheat)/preventive; format: in vivo; settings: 500 ppm of active ingredient, preventive, evaluated 21 days after inoculation
Description: Septoria tritici-Test (Wheat)/Preventive Solvent: 49 parts by weight of n,n-dimethylacetamid Emulsifier: 1 part by weight of alkylaryl polyglycol ether To produce a suitable preparation of active compound, 1 part by weight of active compound or active compound combination is mixed with the stated amounts of solvent and emulsifier, and the concentrate is diluted with water to the desired concentration. To test for preventive activity, young plants are sprayed with the preparation of active compound or active compound combination at the stated rate of application. After the spray coating has been dried, the plants are sprayed with a spore suspension of Septoria tritici.

[12] = tested on: Fusarium nivale (var. majus); assay: Fusarium nivale (var. majus)-test (wheat)/preventive; format: in vivo; settings: Microdochium nivale, 120 h, 500 ppm of active ingredient, preventive, evaluated 5 days after inoculation, read-out: efficacy
Description: Fusarium nivale (Var. Majus)-Test (Wheat)/Preventive Solvent: 49 parts by weight of n,n-dimethylacetamid Emulsifier: 1 part by weight of alkylaryl polyglycol ether To produce a suitable preparation of active compound, 1 part by weight of active compound or active compound combination is mixed with the stated amounts of solvent and emulsifier, and the concentrate is diluted with water to the desired concentration. To test for preventive activity, young plants are sprayed with the preparation of active compound or active compound combination at the stated rate of application. After the spray coating has been dried, the plants are slightly injured by using a sandblast and afterwards they are sprayed with a conidia suspension of Fusarium nivale (var. majus).

[13] = tested on: Fusarium graminearum; assay: whole plant or invertebrate; format: in vivo; settings: in Hordeum vulgare, 120 h, read-out: efficacy

Row | Compound | chromatographic logP [1] | pest or weed control at 500 ppm [2] [%] | pest or weed control at 500 ppm [3] [%] | pest or weed control at 500 ppm [4] [%] | pest or weed control at 500 ppm [5] [%] | pest or weed control at 500 ppm [6] [%] | pest or weed control at 500 ppm [7] [%] | pest or weed control at 100 ppm [8] [%] | efficacy [9] [%] | pest or weed control at 100 ppm [10] [%] | efficacy [11] [%] | pest or weed control at 500 ppm [12] [%] | pest or weed control at 500 ppm [13] [%] | chromatographic logP ([1]; pH 2.7) | chromatographic logP ([1]; pH 2.3)
1 | CC(=O)N(C(C)=O)c1cc(-c2c(-c3ccccc3)nn3c2CCCC3)ccn1 [Example 2, N-acetyl-N-[4-(2-phenyl-4,5,6,7-tetrahydropyrazolo[1,5-a]pyridin-3-yl)pyridin-2-yl]acetamide] | 2.22 | 96 | 100 | 95 | 100 | 100 | 70 | 95 | 71 | 87 | 100 | 100 | 100 | – | –
2 | CC(=O)N(C(C)=O)c1cc(-c2c(-c3ccsc3)nn3c2CCCC3)ccn1 [Example 4, N-acetyl-N-{4-[2-(3-thienyl)-4,5,6,7-tetrahydropyrazolo[1,5-a]pyridin-3-yl]pyridin-2-yl}acetamide] | 2.18 | – | 90 | 95 | 95 | – | 95 | 95 | 95 | 95 | – | – | – | – | –
3 | CC(=O)N(C(C)=O)c1cc(-c2c(-c3cccs3)nn3c2CCCC3)ccn1 [Example 8, N-acetyl-N-{4-[2-(2-thienyl)-4,5,6,7-tetrahydropyrazolo[1,5-a]pyridin-3-yl]pyridin-2-yl}acetamide] | 2.18 | 95 | 89 | 89 | 100 | 89 | 95 | 83 | – | – | – | 92 | 88 | – | –
4 | CC(=O)N(C(C)=O)c1cc(-c2c(-c3ccc(F)cc3)nn3c2CCOC3C)ccn1 (stereo not drawn) [Example 10, N-acetyl-N-{4-[2-(4-fluorophenyl)-7-methyl-4,5-dihydropyrazolo[1,5-c][1,3]oxazin-3-yl]pyridin-2-yl}acetamide] | 2.56 | 95 | 90 | 90 | 95 | 95 | – | – | – | – | 80 | 100 | 94 | – | –
5 | O=C(C1CC1)N(C(=O)C1CC1)c1cc(-c2c(-c3ccc(F)cc3)nn3c2CCC3)ccn1 [Example 12, N-(cyclopropylcarbonyl)-N-{4-[2-(4-fluorophenyl)-5,6-dihydro-4H-pyrrolo[1,2-b]pyrazol-3-yl]pyridin-2-yl}cyclopropanecarboxamide] | 2.91 | 100 | 80 | 95 | 95 | 95 | 80 | – | – | – | – | – | – | – | –
6 | CC(C)CC(=O)N(C(=O)CC(C)C)c1cc(-c2c(-c3ccc(F)cc3)nn3c2CCOC3C)ccn1 (stereo not drawn) [Example 13, N-{4-[2-(4-fluorophenyl)-7-methyl-4,5-dihydropyrazolo[1,5-c][1,3]oxazin-3-yl]pyridin-2-yl}-3-methyl-N-(3-methylbutanoyl)butanamide] | 5.01 | 93 | 78 | 89 | 89 | – | – | – | – | – | – | – | – | – | –
7 | O=C(CCCCO)CC(=O)c1ccc(F)cc1 [[XIII-4], 1-(4-fluorophenyl)-7-hydroxyheptane-1,3-dione] | – | – | – | – | – | – | – | – | – | – | – | – | – | 2.3 | –
8 | OCCCc1cc(-c2ccc(F)cc2)n[nH]1 [[XIV-1], 3-[3-(4-fluorophenyl)-1H-pyrazol-5-yl]propan-1-ol] | – | – | – | – | – | – | – | – | – | – | – | – | – | 1.51 | 1.5
9 | OCCCc1cc(-c2ccc(F)c(F)c2)n[nH]1 [[XIV-2], 3-[3-(3,4-difluorophenyl)-1H-pyrazol-5-yl]propan-1-ol] | – | – | – | – | – | – | – | – | – | – | – | – | – | 1.73 | 1.73
10 | OCCCc1cc(-c2ccc(F)c(Cl)c2)n[nH]1 [[XIV-3], 3-[3-(3-chloro-4-fluorophenyl)-1H-pyrazol-5-yl]propan-1-ol] | – | – | – | – | – | – | – | – | – | – | – | – | – | 1.96 | 1.97
11 | OCCCCc1cc(-c2ccc(F)cc2)n[nH]1 [[XIV-4], 4-[3-(4-fluorophenyl)-1H-pyrazol-5-yl]butan-1-ol] | – | – | – | – | – | – | – | – | – | – | – | – | – | 1.72 | 1.72
12 | CC(CCO)c1cc(-c2ccc(F)cc2)n[nH]1 (stereo not drawn) [[XIV-5], 3-[3-(4-fluorophenyl)-1H-pyrazol-5-yl]butan-1-ol] | – | – | – | – | – | – | – | – | – | – | – | – | – | 1.74 | 1.74
